Each structure is given as a SMILES string.

The source of these data is ChEMBL document CHEMBL1142642, “Hermitamides A and B, toxic malyngamide-type natural products from the marine cyanobacterium Lyngbya majuscula” (J Nat Prod, 2000).

One data set has as its system Biomphalaria glabrata. In words: Molluscicidal activity against Biomphalaria glabrata at 10 ppm. The format is organism-based. The following applies: in vivo.
The nature of data set [1]: Cytotoxicity against mouse Neuro2a cells after 24 hrs by MTT assay. The format is cell-based. The following applies: N2a.
A short description of data set [2]: Toxicity in Artemia salina. Type of data set: organism-based. The following applies: in vivo, read-out: LD50 (the source's name).
Data set [3] can be described thus: Ichthyotoxicity to gold fish. The following applies: carassius auratus, in vivo; read-out: LD50 (the source's name). Type of data set: organism-based.

Consider `CCCCCCC[C@@H](C/C=C/CCC(=O)NCCc1ccccc1)OC` [HERMITAMIDE A], for which the Activity entry in the data set on Biomphalaria glabrata is “Not Active”. Half-maximal inhibition in data set [1] (IC50) was put at 2.2 µM. Further, the LC50 in data set [2] amounted to 5 µM; in data set [3] it was 19 µM.
For `CCCCCCC[C@@H](C/C=C/CCC(=O)NCCc1c[nH]c2ccccc12)OC` [HERMITAMIDE B] the same measures were “Not Active”, 5.5 µM, 18 µM and 25 µM.
Consider `CCCCCCC[C@@H](C/C=C/CCC(=O)N(C)C/C(=C/Cl)c1cccc(C)c1O)OC` [MALYNGAMIDE M], for which the IC50 in data set [1] was more than 20 µM.
Consider `CCCCCCC[C@@H](C/C=C/CCC(=O)N(C)C/C(=C/Cl)[C@]12O[C@H]1CC=C(C)C2=O)OC` [MALYNGAMIDE N], for which it took 12 µM to reach half-maximal inhibition in data set [1] (IC50). In other words, the double-digit micromolar range.
